From patent US20020055639A1, “Pyrazole derivatives as herbicides” (priority 1997, published 2002)

How the values were obtained:
Assay type in all cases: in vivo
Set-up in all cases: key: 1=total damage; 9=no action; Ratings of from 1 to 4 (especially from 1 to 3) indicate good to very good herbicidal action
Setaria [1] = experiment: Pre-emergence herbicidal action (Example B1); conditions: 2000 g a.i./ha, sprayed immediately after sowing, evaluated after 3 weeks, scale of nine ratings
Experimental: (§1) Monocotyledonous and dicotyledonous test plants are sown in standard soil in plastics pots. Immediately after sowing, the test compounds, each in the form of an aqueous suspension or emulsion prepared from a 25% emulsifiable concentrate (Example F1, c) in WO 97/34485, pages 9 and 10), are applied by spraying at a rate of application of 2000 g of active ingredient/ha (500 liters water/ha). The test plants are then grown in a greenhouse under optimum conditions. After 3 weeks' test duration, the test is evaluated in accordance with a scale of nine ratings (1=total damage, 9=no action). Ratings of from 1 to 4 (especially from 1 to 3) indicate good to very good herbicidal action.
(§2) Test plants: Avena, Setaria, Sinapis, Stellaria

Sinapis [2] = experiment: Pre-emergence herbicidal action (Example B1); conditions: 2000 g a.i./ha, sprayed immediately after sowing, evaluated after 3 weeks, scale of nine ratings
Experimental: as §1, §2

Stellaria [3] = experiment: Pre-emergence herbicidal action (Example B1); conditions: 2000 g a.i./ha, sprayed immediately after sowing, evaluated after 3 weeks, scale of nine ratings
Experimental: as §1, §2

Avena [4] = experiment: Pre-emergence herbicidal action (Example B1); conditions: 2000 g a.i./ha, sprayed immediately after sowing, evaluated after 3 weeks, scale of nine ratings
Experimental: as §1, §2

Setaria [5] = experiment: Post-emergence herbicidal action (Example B2); conditions: 2000 g a.i./ha, sprayed at 4- to 6-leaf stage, evaluated after approximately 18 days, scale of nine ratings
Experimental: (§3) Monocotyledonous and dicotyledonous test plants are grown in a greenhouse in plastics pots containing standard soil and at the 4- to 6-leaf stage are sprayed with an aqueous suspension or emulsion of the test substances of formula I, prepared from a 25% emulsifiable concentrate (Example F1, c) in WO 97/34485, pages 9 and 10), at a rate of application corresponding to 2000 g of active ingredient/ha (500 liters water/ha). The test plants are then grown on in the greenhouse under optimum conditions. After approximately 18 days' test duration, the test is evaluated in accordance with a scale of nine ratings (1=total damage, 9=no action). Ratings of from 1 to 4 (especially from 1 to 3) indicate good to very good herbicidal action.
as §2

Sinapis [6] = experiment: Post-emergence herbicidal action (Example B2); conditions: 2000 g a.i./ha, sprayed at 4- to 6-leaf stage, evaluated after approximately 18 days, scale of nine ratings
Experimental: as §3, §2

Stellaria [7] = experiment: Post-emergence herbicidal action (Example B2); conditions: 2000 g a.i./ha, sprayed at 4- to 6-leaf stage, evaluated after approximately 18 days, scale of nine ratings
Experimental: as §3, §2

Avena [8] = experiment: Post-emergence herbicidal action (Example B2); conditions: 2000 g a.i./ha, sprayed at 4- to 6-leaf stage, evaluated after approximately 18 days, scale of nine ratings
Experimental: as §3, §2

| Compound | Pre-emergence action: Setaria (rating) (Setaria [1]) | Pre-emergence action: Sinapis (rating) (Sinapis [2]) | Pre-emergence action: Stellaria (rating) (Stellaria [3]) | Pre-emergence action: Avena (rating) (Avena [4]) | Post-emergence action: Setaria (rating) (Setaria [5]) | Post-emergence action: Sinapis (rating) (Sinapis [6]) | Post-emergence action: Stellaria (rating) (Stellaria [7]) | Post-emergence action: Avena (rating) (Avena [8]) |
| --- | --- | --- | --- | --- | --- | --- | --- | --- |
| Cn1nc(-c2c(F)cc(Cl)c(=O)n2CC#N)c(Cl)c1OC(F)F [Example 1.126] | 1 | 1 | 1 | 1 | 1 | 1 | 1 | 1 |
| C#CCn1c(-c2nn(CC)c(OC(F)F)c2Cl)c(F)cc(Cl)c1=O [Example 7.100] | 1 | 1 | 1 | 1 | 1 | 1 | 1 | 1 |
| Cn1nc(-c2c(Cl)cc(Cl)c(=O)n2C)c(Cl)c1OC(F)F [Example 1.003] | 1 | 1 | 1 | 1 | 1 | 1 | 1 | 1 |
| Cn1nc(-c2c(F)cc(Cl)c(=O)n2C)c(Cl)c1C(F)(F)F [Example 9.002] | 3 | 1 | 1 | 1 | 3 | 1 | 1 | 1 |
| Cn1nc(-c2c(F)cc(Cl)c(=O)n2C)c(Cl)c1OC(F)F [Example 1.002] | 1 | 1 | 1 | 1 | 1 | 1 | 1 | 1 |
| Cn1nc(-c2c(F)cc(Cl)c(=O)n2CCCc2ccccc2)c(Cl)c1OC(F)F [Example 1.106] | 1 | 1 | 1 | 2 | 3 | 1 | 1 | 3 |
| Cn1nc(-c2c(Cl)cc(Cl)c(=O)n2CS(C)(=O)=O)c(Cl)c1OC(F)F [Example 1.152] | 1 | 1 | 1 | 1 | 1 | 1 | 1 | 1 |
| CCOC(=O)CCCn1c(-c2nn(C)c(OC(F)F)c2Cl)c(F)cc(Cl)c1=O [Example 1.205] | 1 | 1 | 1 | 1 | 1 | 1 | 1 | 1 |
| CCC(=O)Cn1c(-c2nn(C)c(OC(F)F)c2Cl)c(F)cc(Cl)c1=O [Example 1.302] | 1 | 1 | 1 | 1 | 1 | 1 | 1 | 1 |
| CCOC(=O)Cn1c(-c2nn(C)c(OC(F)F)c2Cl)c(F)cc(Cl)c1=O [Example 1.181] | 1 | 1 | 1 | 1 | 1 | 1 | 1 | 1 |
| Cn1nc(-c2c(F)cc(Cl)c(=O)n2C[S+](C)[O-])c(Cl)c1OC(F)F (stereo not drawn) [Example 1.150] | 1 | 1 | 1 | 1 | 1 | 1 | 1 | 1 |
| Cn1nc(-c2c(F)cc(Cl)c(=O)n2Cc2ccccc2)c(Cl)c1OC(F)F [Example 1.111] | 1 | 1 | 1 | 2 | 1 | 1 | 2 | 2 |
| COn1c(-c2nn(C)c(OC(F)F)c2Cl)c(F)cc(Cl)c1=O [Example 1.400] | 1 | 1 | 1 | 1 | 2 | 1 | 1 | 1 |
| C#CCn1c(-c2nn(C)c(OC(F)F)c2Cl)c(F)cc(Cl)c1=O [Example 1.100] | 1 | 1 | 1 | 1 | 1 | 1 | 1 | 1 |
| C#CCn1c(-c2nn(C)c(C(F)(F)F)c2Cl)c(F)cc(Cl)c1=O [Example 9.100] | 1 | 1 | 1 | 1 | 2 | 1 | 1 | 2 |
